How the values were obtained:
[1] = tested on: ADPKD cells; experiment: Cyst formation of ADPKD cells plated in collagen, forskolin stimulated; type: cell-based, human
Protocol: FIG. 1. […] Images are at 10×. BF=bright field.
FIG. 2. Quantification of cyst size and cyst number in ADPKD cells incubated with or without BPTES. Total number of cysts in FIG. 1 was counted and stratified by cyst size. Asterisks indicate statistically significant findings.
FIG. 10. siRNA to Gls1 inhibits cyst formation of ADPKD cells. ADPKD cells were transfected with a control or siRNA to Gls1 and cyst formation was assessed. Number of cysts in control (blue), siRNA transfected cells (green), or siRNA transfected cells cultured with dimethyl α-ketoglutarate (red).
FIG. 10 depicts results from experiments using siRNA to Gls1 to determine the effects of same on cyst formation of ADPKD cells. […] The following are exemplary siRNA sequences used for inhibition of Gls1 […] (SEQ ID NO: 1); SASI_Hs01_00071573-[…][dT][dT] (SEQ ID NO: 2); 2260 NM_014905-[…] (SEQ ID NO: 3); SASI_Hs01_00071574-[…][dT][dT] (SEQ ID NO: 4); 1081 NM_014905-[…] (SEQ ID NO: 5).
The present inventors have made the surprising discovery that inhibiting glutaminase 1 (gls1) blocks cyst formation and proliferation by ADPKD cells. […] ADPKD cells were plated in collagen and stimulated with the cyclic 3′-5′-adenosine monophosphate (cAMP) agonist forskolin. […] The results are depicted graphically in FIG. 2, wherein the data were stratified according to both the number of observable cysts and their size.

[2] = tested on: ADPKD cells; experiment: Intracellular ATP levels; type: cell-based, human; settings: 24 hours
Description: α-ketoglutarate also feeds directly into the tricarboxylic acid (TCA) cycle and therefore metabolism of α-ketoglutarate is an important source of ATP from glutamine.

[3] = tested on: Pkd1^fl/fl; Pkhd1-Cre mice; experiment: Pkd1fl/fl; Pkhd1-Cre mouse model of ADPKD; type: in vivo
Description: As described in Karihaloo et al. (2011, J Am Soc Nephrol 22: 1809-1814), Pkd1^fl/fl; Pkhd1-Cre mice may be generated by crossing Pkd1fl/fl mice with Pkhd1-Cre mice13 so as to achieve kidney-specific deletion of the Pkd1 allele. See also Shibazaki et al. (2008, Hum Mol Genet 17, 1505-1516) and Patel et al. (2008, Hum Mol Genet 17, 1578-1590). The entire content of each of Karihaloo et al., Shibazaki et al., and Patel et al. is incorporated herein by reference.
Pkhd-Cre Mice: This is a very robust and reproducible early model of PKD. The Somlo lab has shown that Pkhd-cre expresses and deletes predominantly in collecting tubules Ma et al. (2013, Nature genetics, 45: 1004-1012; the entire content of which is incorporated herein by reference).

[4] = tested on: PKD1^flox/flox; Tamoxifen-Cre mice; type: in vivo; settings: BPTES 12.5 mg/kg IP BID, postnatal day 15-32, N=4, vs vehicle control
Protocol: FIG. 12A-C. […] Mice were sacrificed on day 32 and analyzed. (A) Scan of sagittal section of littermates treated with BPTES or vehicle control; (B) Kidney wt/body wt; (C) cystic index.
Cre recombinase was induced on postnatal day 10 by administering tamoxifen (10 mg/40 g) intraperitoneally (IP) on two consecutive days. […] Only same sexed mice from same litters were compared.
Early Models. PKD1^flox/flox; Tamoxifen-Cre Mice: The present inventors obtained the tamoxifen-Cre mouse model from G. Germino. For early onset disease, Cre recombinase is induced at day 10 by administering tamoxifen (10 mg/40 g) intraperitoneally (IP) on 2 consecutive days as described in FIG. 12 above and in Piontek et al. (2007, Nature medicine, 13: 1490-1495; the entire content of which is incorporated herein by reference).

[5] = tested on: ADPKD cells; experiment: Seahorse analysis of ATP production and mitochondrial oxygen consumption; type: cell-based, human
Protocol: FIG. 13A-B. Seahorse analysis of ADPKD cells. ADPKD cells that were unstimulated or stimulated with forskolin in the presence or absence of BPTES and mitochondrial oxygen consumption was determined by seahorse analysis. (A) Schematic of the method and analysis. Oligomycin inhibits ATP synthase. FCCP is a mitochondrial uncoupler and leads to maximal OCR and rotenone interferes with electron transport. (B) Inhibition of ATP generation was also found by Seahorse analysis. ADPKD cells were unstimulated in the absence (C) or presence of BAPTES (B) or stimulated with forskolin in the absence (F) or presence of BPTES (FB).
The decreased generation of α-ketoglutarate, which feeds directly into tricarboxylic acid (TCA) would be predicted to lead to decreased TCA intermediates required for mitochondrial respiration and ATP generation. Seahorse analysis (Seahorse Biosciences) was performed on ADPKD cells that were either unstimulated or stimulated with forskolin in the presence or absence of BPTES.

[6] = tested on: mTor; experiment: mTOR activation by anti-phospho-S6 immunoblot after amino acid refeeding; type: cell-based, human; settings: ADPKD cells refed glutamine and lysine 30 or 60 minutes after 3 hours amino acid deprivation
Protocol: FIG. 14. […] Cells were then lysed and mTOR activation was assessed by immunoblotting with anti-phospho-S6 antibodies (pS6). To control for loading, the same samples were immunoblotted with antibodies to actin (Actin).

[7] = tested on: mTor; experiment: Recruitment of mTor to lysosome, immunofluorescence with LAMP; type: cell-based, human; settings: ADPKD cells refed with amino acids (QL)
Description: (A) Schematic depicting mTor activation, which is mediated by the recruitment of mTor to the lysosome. (B) ADPKD cells were stimulated as in FIG. 14 and then subjected to immunofluorescence analysis with antibodies to LAMP (lysosomal associated membrane protein) which stains lysosomes and mTor. Co-localization is shown by a yellow signal following the merging of the green mTor signal and the red LAMP signal. Refeeding with amino acids (QL) led to colocalization or recruitment of mTor to the lysosome as manifested by yellow staining in the merged image (compare −QL with +QL), which was abolished by treatment with BPTES.

[8] = cited from earlier work
[9] = target: T1, GLS1 (Homo sapiens, UniProt O94925); settings: dimeric vs tetrameric GLS1; cited from earlier work
T1 sequence (O94925 55-669): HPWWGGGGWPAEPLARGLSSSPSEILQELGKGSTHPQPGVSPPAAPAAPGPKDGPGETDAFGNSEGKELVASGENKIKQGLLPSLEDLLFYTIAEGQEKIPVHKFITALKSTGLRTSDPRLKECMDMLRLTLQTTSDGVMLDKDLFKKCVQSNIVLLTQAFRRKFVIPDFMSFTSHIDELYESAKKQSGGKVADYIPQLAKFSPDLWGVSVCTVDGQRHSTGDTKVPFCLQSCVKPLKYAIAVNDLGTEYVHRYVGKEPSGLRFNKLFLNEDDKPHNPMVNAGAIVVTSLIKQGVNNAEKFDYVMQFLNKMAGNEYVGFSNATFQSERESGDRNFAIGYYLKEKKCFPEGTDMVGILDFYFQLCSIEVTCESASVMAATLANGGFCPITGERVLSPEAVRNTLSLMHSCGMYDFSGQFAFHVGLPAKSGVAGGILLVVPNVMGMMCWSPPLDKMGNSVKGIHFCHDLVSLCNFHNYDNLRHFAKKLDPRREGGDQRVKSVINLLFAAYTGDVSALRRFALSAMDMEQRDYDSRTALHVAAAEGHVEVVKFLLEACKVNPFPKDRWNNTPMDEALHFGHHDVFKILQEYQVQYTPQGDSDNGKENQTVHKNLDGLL

[10] = tested on: ADPKD cells; experiment: Forskolin-induced proliferation, MTT assay; type: cell-based, human; settings: co-culture of ADPKD cells with α-ketoglutarate
Protocol: FIG. 3. […] Proliferation was then quantitated 24 hours later using the MTT assay kit (Promega).
Elevated intracellular concentration of cAMP is characteristic of ADPKD cells in vivo and mediates activation of signaling pathways that lead to proliferation of ADPKD cells. Gls1 is also critical for proliferation of ADPKD cells.

[11] = tested on: ADPKD cells; experiment: 8-bromo-cAMP stimulated proliferation, MTT assay; type: cell-based, human; settings: 8-bromo-cAMP + BPTES
[12] = ADPKD cells in collagen, forskolin, cultured 2 weeks with or without BPTES
[13] = BPTES 12.5 mg/kg IP QOD, postnatal day 10-24, vs vehicle control

## O=C(Cc1ccccc1)Nc1nnc(CCSCCc2nnc(NC(=O)Cc3ccccc3)s2)s1 [BPTES]
[1]; [12]
  number of cysts: markedly reduces the number of cysts
  size of cysts: profoundly decreases the size of those cysts that are formed
[2]
  intracellular ATP levels: significant decrease
[3]; [13]
  cyst volume: significantly decreased
  kidney size: significantly decreased
[3]; following BPTES administration
  kidney function: some preservation/restoration of kidney function was observed
[4]
  cyst growth: statistically significant inhibition of cyst growth
[5]
  basal and forskolin stimulated ATP production: inhibited
  basal and forskolin stimulated mitochondrial O2 consumption: inhibited
[6]
  mTor activation (pS6): inhibits mTor activation
[7]
  colocalization or recruitment of mTor to the lysosome: abolished

## CN(C)c1ccc(C2Nc3ccc4ccccc4c3C3=C2C(=O)CC(C)(C)C3)cc1Br (stereo not shown) [compound 968, 5-(3-bromo-4-(dimethylamino)phenyl)-2,2-dimethyl-2,3,5,6-tetrahydrobenzo[a]phenanthridin-4(1H)-one]
[8]
  aqueous solubility: poor aqueous solubility
[9]
  inhibition of GLS1 oligomeric forms: only inhibits the nonactivated dimeric GLS1 and not the active tetramer

## COC(=O)CCC(=O)C(=O)OC [dimethyl α-ketoglutarate]
[1]; dimethyl α-ketoglutarate added to the medium
  rescue of cyst formation in siRNA transfected cells: statistically significant rescue of cyst formation
[10]
  reversal of BPTES inhibition of proliferation: reversed the inhibition of proliferation by BPTES
[11]
  rescue of BPTES inhibition of proliferation: rescued the inhibition of proliferation
